Settings: rat; liver microsomes; pH 7.4; 15.0 min; 1.0 µM

SMILES | half-life [min]
CC[C@@]1(O)C(=O)OCc2c1cc1n(c2=O)Cc2c-1nc1ccccc1c2CCNC(C)C | > 30
CCOc1ccc(CCNC(=O)c2cc3cccnc3n2Cc2cccc(C)c2)cc1OCC | 1.7
COc1ccc(NC(=O)C2=C(C)NC(Nc3nc4ccccc4o3)=NC2c2ccccc2Br)cc1 (stereo not drawn) | 21
Cc1cccc(C)c1NC(=O)c1nc(SC(C)C)ncc1Cl | 1.38
Cc1cnc(-c2ccccc2C2CC2)nc1NCc1ccc(-c2cccnc2)cc1 | 6.2
O=[S+]([O-])(Nc1ccccc1)c1ccc(NCc2cccc(C(F)(F)F)c2F)cc1 | 9
NC(=O)C(=O)N/N=C/c1ccc([N+](=O)[O-])o1 | > 30
COc1ccc(NS(=O)(=O)c2ccc(C)c(C(=O)Nc3ccc4oc(C)nc4c3)c2)cc1 | 4.3
CCc1cccc(CC)c1-n1c(C=C(C)C)c(C(=O)N2CCNCC2)cc(-c2nc(-c3ccc(C(F)(F)F)cc3)cs2)c1=O | > 30
CC(=O)Nc1ccc(S(=O)(=O)Nc2nccs2)cc1 | > 30
Nc1nc2c(s1)C(c1cccc(F)c1F)CC(=O)N2 (stereo not drawn) | > 30
FC(F)(F)c1ccc(CNc2nc(-c3ccccc3C(F)(F)F)nc3ccccc23)cc1 | > 30
CC1Cc2cc(S(=O)(=O)NCc3ccc(N(C)C)cc3)ccc2N1C(=O)C1CCC1 (stereo not drawn) | 1.73
O=C(Nc1cccc(C(F)(F)F)c1)C1=CCN(Cc2ccc(F)cc2)CC1 | 3.4
Cc1ccc(-c2[nH]n3c(=O)c4c(nc3c2C)CCCC4)cc1 | 8.72
CC(C)(C)C(O)C(Oc1ccc(Cl)cc1)n1cncn1 (stereo not drawn) | > 30
OCc1ccc(-c2cc3c(ccn3Cc3cccnc3)c(C3=CCOCC3)n2)cc1 | 4.89
CC(C)c1nc2oc3c(NCCN(C)C)ncnc3c2c2c1COC(C)(C)C2 | > 30
CCOC(=O)Nc1ccc(NCc2ccc(F)cc2)nc1N | > 30
c1ccc(-c2ccc(CNc3nc(-c4ccccn4)nnc3-c3ccccc3)cc2)cc1 | 7.73
O=C(Nc1nc(-c2ccccc2)cs1)c1ccncc1NS(=O)(=O)c1ccccc1Cl | 15
CC(=O)c1c(C)[nH]c(C(=O)Nc2cccc([S+](=O)([O-])Nc3ccncc3)c2)c1C | > 30
Fc1ccc(Nc2nc(C3=CCNCC3)nc3ccccc23)cc1F | 6.1
CCOc1ccc(CCNC(=O)c2cc3sccc3n2Cc2ccc(Cl)c(F)c2)cc1OCC | 1.75
COc1cccc(CNc2ccc(S(=O)(=O)Nc3ccc(C4CCNCC4)cc3)cc2)c1O | 29

SMILES | half-life [min]
COc1cccc(CNc2ccc(S(=O)(=O)Nc3ncccn3)cc2)c1O | > 30
COc1ccc(CCN2C(=O)N(c3ccc(F)cc3)C(=O)C2CC(=O)Nc2ccc(F)c(F)c2)cc1 (stereo not drawn) | 4.04
Cc1ccnc(NC(=S)N2CCCC(Nc3cccc(C(F)(F)F)c3)C2)c1 (stereo not drawn) | 11
O=C(Nc1cccc(Cc2ccccc2)c1)c1ccc(-c2cccc([N+](=O)[O-])c2)o1 | 2.5
O=C(Nc1ccc(-c2ccccc2)cc1)[C@H](Cc1ccc(O[S+](=O)([O-])c2cccc3cnccc23)cc1)N[S+](=O)([O-])c1cccc2cnccc12 | 3.1
Cc1ccc(S(=O)(=O)Nc2ccccc2CNc2nc(-c3ccccc3)cs2)cc1 | 1.6
CC(=O)Nc1cccc(-c2nc(-c3c(C)noc3C)cc3c2cc(-c2ccccc2)n3C)c1 | > 30
CCCN1CNc2c(c(=O)[nH]c(=S)n2CCc2ccc(OC)c(OC)c2)C1 | 18
COCCNCc1ccc(-c2cc3nccc(Oc4ccc(NC(=O)C5(C(=O)Nc6ccc(F)cc6)CC5)cc4F)c3s2)nc1 | 14.8
CCOC(=O)[C@H]1O[C@H]1C(=O)N[C@@H](CC(C)C)C(=O)NCCC(C)C | 1.48
O=c1[nH]cnc2c1ccn2C1OC(CO)C(O)C1O (stereo not drawn) | > 30
O=C1NCc2ccc(-c3cc4c(ccn4Cc4cccnc4)c(C4=CCOCC4)n3)cc21 | 19.5
COC(=O)c1ccccc1NC(=O)c1ccccc1OC(F)F | 2.8
CC(C)(C)c1ccc(OCc2nn3c(-c4ccncc4)nnc3s2)cc1 | 19.6
Cc1ccc(S(=O)(=O)Nc2cnccc2C(=O)Nc2ccc(-n3cncn3)cc2)cc1 | 21
N#Cc1ccccc1CSc1nc2ncc(Br)cc2[nH]1 | 6.6
CCCCN1CCC[C@H]1CNC(=O)c1cc(C#N)c2ccccc2c1OC | 4.23
Cc1cccc(-c2noc([C@@H]3Cc4nc[nH]c4CN3C(=O)CC(C)(C)CC(=O)O)n2)c1 | > 30
Cc1cc(C)c(CNC(=O)c2nc(-c3ccc(F)cc3)cc3c2ccn3C(C)C)c(=O)[nH]1 | 7.89
CC(=O)Nc1ccc(OCc2cn(CC(=O)c3ccc(O)cc3)nn2)cc1 | > 30
COc1ccc(CCNc2ncnc3onc(C)c23)c(OC)c1 | 2.23
CC(C)COc1ccc(-c2ccc(=O)n(CC(=O)NCCc3ccccc3)n2)cc1 | 1.8
COc1cc(C(=O)NC2CCCc3c2[nH]c2c(Cl)cccc32)cc(OC)c1OC (stereo not drawn) | 8.45
Cc1ccc([S+](=O)([O-])n2cc(-c3ccc(-c4ccccc4)cc3)c3ccccc32)cc1 | > 30

Second part, the compound after the results:

half-life [min] | SMILES
27 | Fc1ccc(Nc2nc(-c3ccncc3)ncc2-c2ccccc2)cc1F
18.2 | COc1cccc(N2CCN(c3ncc4c(n3)CCN(Cc3ccc(Br)cc3)C4)CC2)c1
1.86 | Cc1cccc(C)c1Nc1c(-c2ccccn2)nc2ccc(Cl)cn12
> 30 | NC1(c2ccc(NC(=O)c3ccnc(-c4cc(C(=O)O)ccn4)c3)cc2)CC1
10.7 | Cn1nnnc1Sc1ncnc2scc(-c3ccc(F)cc3)c12
7.8 | CCN1C(=O)c2ccccc2S(=O)c2ccc(C(=O)NCc3ccc(OC)cc3)cc21 (stereo not drawn)
17.8 | Cc1cc(Oc2ccc(N)cn2)ccc1Cl
1 | Cc1cccc2nc(-c3cccnc3)c(Nc3ccc(C(C)C)cc3)n12
10.2 | Cc1ccccc1C(=O)N1CCc2cc(-c3csc(NC(=O)Cc4ccc5c(c4)OCO5)n3)ccc21
> 30 | COc1cc(-c2cc3c(nc2-c2ccccc2)nc(C(=O)NC2CCN(C)CC2)n3C)ccn1
6.4 | Cc1nn(CCc2nc(-c3ccc4ccccc4c3)cs2)c2[nH]c(=O)cc(C(F)(F)F)c12
11.6 | CC(C)Oc1cccc(-c2ccnc(N3CCC(C(N)=O)CC3)n2)c1
18.6 | O=C(NC(c1ccccc1)c1cc(Cl)c2cccnc2c1O)c1cccnc1 (stereo not drawn)
18.4 | COC(=O)Nc1nc2ccc(Sc3ccccc3)cc2[nH]1
8.77 | COc1cc2c(cc1NC(=O)COc1ccc(Cl)cc1)oc1ccccc12
6.4 | N#Cc1cnccc1-c1nc(Nc2ccc(F)c(F)c2)c2ccccc2n1
10 | Cc1cnccc1-c1nc(Nc2ccc(F)c(F)c2)c2ccccc2n1
2.08 | CN(C)c1cccc(-c2ncc(F)c(N3CCC(C(N)=O)CC3)n2)c1
> 30 | N#Cc1ccc(Nc2ncc(-c3cccc4ccccc34)o2)cc1
> 30 | O=c1[nH]c(N2CCOCC2)nc2c1CCN(Cc1cc(Cl)ccc1F)CC2
1.29 | CN(C)CCOC1=Cc2ccccc2Sc2ccc(Cl)cc21
1.9 | COc1ccc(C2=Nn3c(nnc3-c3ccncc3)SC2)cc1
1.14 | Fc1cccc(CN2CCNc3cc(Nc4ccccc4)ncc3C2)c1
8.85 | Cc1ccc(S(=O)(=O)Nc2ccccc2C(=O)Nc2nc(-c3ccc(Cl)cc3)cs2)cc1
> 30 | O=S(=O)(Nc1nc2ccccc2s1)c1ccc(NCc2ccc(Br)cc2O)cc1
3.2 | COc1ccccc1-n1cnc2cc(C(=O)N3CCCCC3)ccc21
> 30 | Cc1cccc(OCC(=O)Nc2ccc3nc(Nc4cccc(Cl)c4)cc(C)c3c2)c1

half-life [min] | SMILES
24 | O=S(=O)(Nc1nccs1)c1ccc(NCc2ccccc2O)cc1
1.93 | O=C(c1cnn(-c2cccc(F)c2)c1-n1cccc1)N1CCN(c2ccccc2F)CC1
5.2 | CCN1C(=O)c2ccccc2[S@](=O)c2ccc(C(=O)N[C@H](C)c3ccc4ccccc4c3)cc21
> 30 | O=C(Nc1ccc(OC(F)(F)Cl)cc1)c1cnc(N2CC[C@@H](O)C2)c(-c2ccn[nH]2)c1
1.17 | CCN(CC)S(=O)(=O)c1ccc(N2CCCC2)c(NS(=O)(=O)c2ccc(C)cc2)c1
4.46 | Oc1ccc(CNc2ccccc2Br)c2cccnc12
2.51 | CC(=O)C1CCN(c2ncc(-c3cccc(N(C)C)c3)s2)CC1
> 30 | COc1ccc(-c2ccc3ncc4c(c3c2)n(-c2ccc(N3CCNCC3)c(C(F)(F)F)c2)c(=O)n4C)cn1
2.06 | COc1cccc(CNCc2cccn2-c2nnc(N3CCN(c4ccccc4)CC3)s2)c1
2.02 | Oc1ccc(-c2nc(C3CC3)nc3c2CCN(Cc2ccc(F)cc2)CC3)cc1
> 30 | CS(=O)(=O)c1cccc(-c2csc(N3CCC(C(N)=O)CC3)n2)c1
21 | Cc1cnc(CNc2nc(-c3cccc(NS(C)(=O)=O)c3)nc3ccccc23)cn1
9.3 | Cc1nn(CCc2nc(-c3ccccc3F)cs2)c2[nH]c(=O)cc(C(F)(F)F)c12
20 | Cc1ccnc(NC(=S)N2CCC(Nc3cccc(C(F)(F)F)c3)CC2)c1
1 | Cc1ccc(S(=O)(=O)N2CCCc3cc(NS(=O)(=O)c4ccccc4)ccc32)cc1
> 30 | Cc1cnc(-c2ccccc2C2COC2)nc1NCc1ccc(-n2ccnn2)cc1
> 30 | Nc1ccc(-c2cccc3c(=O)cc(N4CCOCC4)oc23)cc1
> 30 | CC(=O)N1CCc2c(sc3c2c(=O)n(-c2ccccc2)c(=O)n3CC(=O)c2ccccc2)C1
0.9 | CCNC(=O)N1CCCN(c2ccc(C(=O)NCCc3ccc(Cl)cc3Cl)cc2NC(=O)c2cccc(Cl)c2)CC1
1.7 | CCOc1ccc(CCN(C)C(=O)c2cc3sccc3n2Cc2ccccc2)cc1OCC
> 30 | CC(C)CNC(=O)c1cn2cc(-c3ccccc3)sc2n1
1.11 | CN1CCN(C2=Nc3ccccc3Sc3ccc(Cl)cc32)CC1
4.33 | CCCCOc1ccc(CNC(=O)c2cc3n(n2)CCCN(Cc2ccc(C)cc2)C3=O)cc1
8.23 | Cc1cc(C)cc(C(=O)Nc2ccc3c(N4CCCC4)ncnc3c2)c1
10.5 | CN(C)CCCn1cc(C2=C(c3c[nH]c4ccccc34)C(=O)NC2=O)c2ccccc21
15 | Nc1cc(-c2nc(Nc3ccc(F)c(F)c3)c3ccccc3n2)ccn1
8.5 | Cn1cc(Br)c(C2N=C(Nc3nc4ccccc4o3)NC3=C2C(=O)CCC3)n1 (stereo not drawn)

Source: PubChem BioAssay AID1508591
